Laboratory results: patent publication US7557244B2, “Substituted biphenyl carboxylic acids and derivatives thereof” (Ortho-McNeil Pharmaceutical, Inc., priority 2006, dated 2009)

Key:
γ-secretase = assay: Screening for γ-secretase-modulating activity, Aβ 42 in SKNBE2 cells carrying APP 695-wild type; format: cell-based; conditions: for EC50: read-out: WTAPP SKNBE2 Aβ 42 EC50
Description: Screening of the Compounds of the Invention for γ-Secretase-Modulating Activity
Screening was carried out using SKNBE2 cells carrying the APP 695-wild type, grown in DMEM/NUT-mix F12 (HAM) provided by Gibco (cat no. 31330-38) containing 5% Serum/Fe supplemented with 1% non-essential amino acids.
Cells were grown to near confluency.
The screening was performed using the assay as described in Citron et al (1997) Nature Medicine 3: 67.
IC50-Values of Selected Compounds of the Invention on the γ-Secretase Activity.

Aβ 42 [1] = assay: In vivo Aβ 42 lowering, mouse; conditions: oral dose 30 mg/kg at 4 hr time point
Excerpt: (§1) To determine whether acute administration of an Aβ42 lowering agent would reduce Aβ42 levels in vivo, non-transgenic rodents, e.g. mice or rats can be used. Alternatively, two to three month old Tg2576 mice expressing APP695 containing the “Swedish” variant can be used or a transgenic mouse model developed by Dr. Fred Van Leuven (K. U. Leuven, Belgium) and co-workers, with neuron-specific expression of a clinical mutant of the human amyloid precursor protein [V717I] (Moechars et al., 1999 J. Biol. Chem. 274, 6483). […] Animals of this age have high levels of Aβ in the brain but no detectable Aβ deposition. Mice treated with the Aβ42 lowering agent will be examined and compared to those untreated or treated with vehicle and brain levels of soluble Aβ42 and total Aβ would be quantitated by standard techniques, for example, using ELISA. Treatment periods may vary from hours to days and will be adjusted based on the results of the Aβ42 lowering once a time course of onset of effect can be established.
A typical protocol for measuring Aβ42 lowering in vivo is shown but it is only one of many variations that could be used to optimize the levels of detectable Aβ. For example, aliquots of compounds can be dissolved in DMSO (volume equal to 1/10th of the final formulation volume), vortexed and further diluted (1:10) with a 10% (w/v) hydroxypropyl β cyclodextrin (HBC, Aldrich, Ref No 33,260-7) solution in PBS, where after they are sonicated for 20 seconds.
Aβ42 lowering agents may be administered as a single oral dose given three to four hours before sacrifice and analysis or alternatively could be given over a course of days and the animals sacrificed three to four hours after the final dose is given.
Blood is collected at sacrifice. The blood collection is performed via a heart puncture during anesthesia with a mixture of Ketalar (Ketamin), Rompun (Xylazin 2%) and Atropin (2:1:1) and collected in EDTA treated collection tubes. Blood is centrifuged at 4000 g for 5 minutes at 4° C. and the plasma recovered for analysis. […]

Aβ 42 [2] = assay: In vivo Aβ 42 lowering, rat; conditions: oral dose 30 mg/kg at 4 hr time point
Excerpt: as §1
A typical protocol for measuring Aβ42 lowering in vivo is shown but it is only one of many variations that could be used to optimize the levels of detectable Aβ. […]

| EC50 (γ-secretase) | SMILES | WTAPP SKNBE2 Aβ 42 % Inhibition at 3 μM (γ-secretase) | also measured |
| --- | --- | --- | --- |
| 140 nM | CC(C)CC(C(=O)O)c1cc(Oc2cc(F)cc(C(F)(F)F)c2)cc(-c2ccc(Cl)c(C(F)(F)F)c2)c1 (centres unmarked) [Compound 21, 4-Methyl-2-[4′-chloro-3′-trifluoromethyl-5-(3-fluoro-5-trifluoromethylphenoxy)-biphenyl-3-yl]-pentanoic acid] |  | Mouse Efficacy % Lowering Aβ 42 (Aβ 42 [1]): 25% |
| 330 nM | CC(C)CC(C(=O)O)c1cc(Oc2cc(F)cc(C(F)(F)F)c2)cc(-c2ccc(C(F)(F)F)cc2)c1 (centres unmarked) [Compound 30, 2-[5-(3-Fluoro-5-trifluoromethyl-phenoxy)-4′-trifluoromethyl-biphenyl-3-yl]-4-methyl-pentanoic acid] |  | Mouse Efficacy % Lowering Aβ 42 (Aβ 42 [1]): 43% |
|  | CC(C)CC(C(=O)O)c1cc(Oc2cc(F)cc(F)c2)cc(-c2cc(C(F)(F)F)cc(C(F)(F)F)c2)c1 (centres unmarked) [Compound 36, 2-[5-(3,5-Difluoro-phenoxy)-3′,5′-bis-trifluoromethyl-biphenyl-3-yl]-4-methyl-pentanoic acid] | 90% |  |
| 460 nM | CC(C)CC(C(=O)O)c1cc(Nc2cc(C(F)(F)F)cc(C(F)(F)F)c2)cc(-c2ccc(Cl)c(C(F)(F)F)c2)c1 (centres unmarked) [Compound 37, 2-[5-(3,5-Bis-trifluoromethyl-phenylamino)-4′-chloro-3′-trifluoromethyl-biphenyl-3-yl]-4-methyl-pentanoic acid] |  |  |
| 110 nM | CC(C)CC(C(=O)O)c1cc(Nc2cc(F)cc(C(F)(F)F)c2)cc(-c2ccc(Cl)c(C(F)(F)F)c2)c1 (centres unmarked) [Compound 38, 2-[4′-Chloro-5-(3-fluoro-5-trifluoromethyl-phenylamino)-3′-trifluoromethyl-biphenyl-3-yl]-4-methyl-pentanoic acid] |  |  |
|  | CC(C)CC(C(=O)O)c1cc(Nc2cc(C(F)(F)F)ccc2C(F)(F)F)cc(-c2ccc(Cl)c(C(F)(F)F)c2)c1 (centres unmarked) [Compound 39, 2-[4′-Chloro-5-(2,5-bis-trifluoromethyl-phenylamino)-3′-trifluoromethyl-biphenyl-3-yl]-4-methyl-pentanoic acid] | 95% |  |
| 330 nM | CC(C)CC(C(=O)O)c1cc(Nc2cc(C(F)(F)F)ccc2C(F)(F)F)cc(-c2cc(F)cc(C(F)(F)F)c2)c1 (centres unmarked) [Compound 40, 2-[5′-Fluoro-5-(2,5-bis-trifluoromethyl-phenylamino)-3′-trifluoromethyl-biphenyl-3-yl]-4-methyl-pentanoic acid] |  |  |
|  | CC(C)CC(C(=O)O)c1cc(Nc2ccc(F)cc2C(F)(F)F)cc(-c2cc(F)cc(C(F)(F)F)c2)c1 (centres unmarked) [Compound 41, 2-[5′-Fluoro-5-(4-fluoro-2-trifluoromethyl-phenylamino)-3′-trifluoromethyl-biphenyl-3-yl]-4-methyl-pentanoic acid] | 67% |  |
|  | CC(C)CC(C(=O)O)c1cc(Nc2cc(C(F)(F)F)cc(C(F)(F)F)c2)cc(-c2cc(F)cc(C(F)(F)F)c2)c1 (centres unmarked) [Compound 42, 2-[5′-Fluoro-5-(3,5-bis-trifluoromethyl-phenylamino)-3′-trifluoromethyl-biphenyl-3-yl]-4-methyl-pentanoic acid] | 75% |  |
|  | CC(C)CC(C(=O)O)c1cc(Nc2cc(C(F)(F)F)cc(C(F)(F)F)c2)cc(-c2cc(C(F)(F)F)cc(C(F)(F)F)c2)c1 (centres unmarked) [Compound 43, 2-[5-(3,5-Bis-trifluoromethyl-phenylamino)-3′,5′-bis-trifluoromethyl-biphenyl-3-yl]-4-methyl-pentanoic acid] | 89% |  |
| 240 nM | CC(C)CC(C(=O)O)c1cc(Nc2cc(C(F)(F)F)ccc2C(F)(F)F)cc(-c2cc(C(F)(F)F)cc(C(F)(F)F)c2)c1 (centres unmarked) [Compound 44, 2-[5-(2,5-Bis-trifluoromethyl-phenylamino)-3′,5′-bis-trifluoromethyl-biphenyl-3-yl]4-methyl-pentanoic acid] |  |  |
|  | CC(C)CC(C(=O)O)c1cc(Nc2ccc(F)cc2C(F)(F)F)cc(-c2cc(C(F)(F)F)cc(C(F)(F)F)c2)c1 (centres unmarked) [Compound 45, 2-[5-(4-Fluoro-2-trifluoromethyl-phenylamino)-3′,5′-bis-trifluoromethyl-biphenyl-3-yl]-4-methyl-pentanoic acid] | 85% |  |
| 100 nM | CC(C)C[C@@H](C(=O)O)c1cc(Nc2cc(C(F)(F)F)ccc2C(F)(F)F)cc(-c2ccc(C(F)(F)F)cc2)c1 [Compound 46, (R)2-[5-(2,5-Bis-trifluoromethyl-phenylamino)-4′-trifluoromethyl-biphenyl-3-yl]-4-methyl-pentanoic acid] |  | Rat Efficacy % Lowering Aβ 42 (Aβ 42 [2]): 30%; Mouse Efficacy % Lowering Aβ 42 (Aβ 42 [1]): 18% |
